Source: patent US20040023991A1, “Use of pyrazolo[4,3-d]pyrimidines” (priority 2000, published 2004)

melting point: 178 °C
SMILES: CCCc1nn(C)c2c(NCc3ccc(OC)c(Cl)c3)nc(CCC(=O)O)nc12 [Example 2, 3-[7-(3-chloro-4-methoxybenzylamino)-1-methyl-3-propyl-1H-pyrazolo[4,3-d]pyrimidin-5-yl]propionic acid]
